Patent USRE47193E1, “Selectively substituted quinoline compounds” (EISAI R&D MANAGEMENT CO., LTD., priority 2013, dated 2019)
pIC50: −log10 of the molar value.

Columns and labels:
[1] = tested on: Human TLR7/8; assay: Human PBMC cell-based assay, TLR7/8 stimulus (RNA-Ig), cytokine ELISA; settings: primary human PBMC assay, TLR7/8 potency; ligand not given; read-out: Human PBMCs IC50
Procedure, shortened: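 Healthy-donor human PBMC, 2×10^5 cells/well (1×10^5 in later assay), pre-treated 30 min with compound (0.1% DMSO). Stimulated 20 h at 37 °C with RNA-Ig: 26-mer U1 snRNA stem loop IV phosphorothioate RNA at 2.5 μM plus anti-ssDNA antibody (1:25 or 1 ug/ml). Supernatant cytokines by ELISA.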

[2] = tested on: Mouse Splenocytes; assay: Mouse spleen cell-based assay (R848, IL-6 ELISA); settings: BALB/c spleen cells, 370 nM R848
Experimental: Mouse Spleen cell-based assay. Spleens were harvested from female BALB/c mice (Jackson Labs, Bar Harbor, Me.) euthanized by CO2. A single cell suspension was obtained by passing spleens through a 40 μm an nylon cell strainer. Cells were washed twice with 50 ml PBS (Mediatech, Inc., Manassas, Va.) and red blood cells were lysed in 5 ml RBC Lysis buffer (eBioscience, Inc., San Diego, Calif.) for 5 minutes at room temperature. Cells were washed twice more in PBS and finally resuspended in supplemented RPMI-1640 at 2.5×10^6 cells/ml. Cells were plated at 100 μl/well (2.5×10^5 cells/well) in 96-well tissue culture treated plates (Falcon). Serial dilutions of compounds solubilized in 100% DMSO were added in triplicate to cells to yield a final concentration of 0.1% DMSO. Cells were incubated with compound for 30 minutes at 37° C., 5% CO2 before adding 100 μl/well of 740 nM R848 (Resiquimod; GLSynthesis, Worcester, Mass.) in complete media for a final concentration of 370 nM R848. Cells were incubated for 20 hours at 37° C., 5% CO2. Culture supernatants were collected, and levels of IL-6 were assessed by standard ELISA procedure according to the manufacturer's recommended protocol (BD Biosciences, Inc., San Diego, Calif.).

[3] = target: T1, mouse TLR7 (Mus musculus, UniProt P58681); assay: Short-term in vivo (STIV) assay: oral dosing, R848 s.c., plasma IL-6; set-up: female BALB/c mice (Jackson Labs, Bar Harbor, Me.) were dosed by oral gavage; tissue Jackson Labs; host or cells: living female BALB/c mice; plasma IL-6 after s.c. R848
T1 sequence (P58681 27-1050): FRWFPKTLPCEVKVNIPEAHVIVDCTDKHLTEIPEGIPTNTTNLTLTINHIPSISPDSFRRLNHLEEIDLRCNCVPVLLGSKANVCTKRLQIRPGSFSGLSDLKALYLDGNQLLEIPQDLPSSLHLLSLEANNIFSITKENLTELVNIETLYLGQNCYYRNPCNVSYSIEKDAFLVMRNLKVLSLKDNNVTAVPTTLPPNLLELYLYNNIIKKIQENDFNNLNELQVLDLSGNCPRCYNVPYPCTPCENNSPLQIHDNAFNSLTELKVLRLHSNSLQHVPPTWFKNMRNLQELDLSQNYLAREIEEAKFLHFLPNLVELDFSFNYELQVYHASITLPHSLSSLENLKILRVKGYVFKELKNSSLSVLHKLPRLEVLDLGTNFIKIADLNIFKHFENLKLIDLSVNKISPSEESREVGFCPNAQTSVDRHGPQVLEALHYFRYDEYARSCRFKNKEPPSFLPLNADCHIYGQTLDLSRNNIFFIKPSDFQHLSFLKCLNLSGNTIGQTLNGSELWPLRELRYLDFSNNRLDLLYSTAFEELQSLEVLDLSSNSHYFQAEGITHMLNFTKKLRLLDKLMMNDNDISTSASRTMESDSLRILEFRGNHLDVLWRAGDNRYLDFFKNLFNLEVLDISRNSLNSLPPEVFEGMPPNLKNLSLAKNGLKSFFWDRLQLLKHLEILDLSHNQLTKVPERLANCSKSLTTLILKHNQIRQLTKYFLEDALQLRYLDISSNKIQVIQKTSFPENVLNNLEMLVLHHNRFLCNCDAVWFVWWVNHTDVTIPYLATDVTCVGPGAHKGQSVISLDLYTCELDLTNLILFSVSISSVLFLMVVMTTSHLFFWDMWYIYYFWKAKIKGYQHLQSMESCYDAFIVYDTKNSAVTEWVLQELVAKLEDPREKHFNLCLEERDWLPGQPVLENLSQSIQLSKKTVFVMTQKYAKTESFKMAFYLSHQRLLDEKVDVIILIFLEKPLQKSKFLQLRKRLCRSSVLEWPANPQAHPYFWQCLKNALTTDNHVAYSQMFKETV
Procedure, shortened: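 Female BALB/c mice (6–8 weeks) dosed orally with compound in 0.5% aqueous methyl-cellulose at 33, 100 or 300 mg/kg; at various times afterwards given 15 ug R848 s.c. to stimulate TLR7. Plasma IL-6 measured by ELISA to gauge potency and duration of action.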

[4] = target: T2, human TLR8 (Homo sapiens, UniProt Q9NR97); assay: HEK-293 human TLR8 NF-kappaB luciferase reporter assay (CL097); assay type: cell-based; settings: HEK-293 assay format; read-out: HEK/hTLR8 IC50
T2 construct: host or cells: HEK-293, then stably transfected with pNiFty2(NF-kappaB)-luciferase reporter
T2 sequence (Q9NR97 27-1041): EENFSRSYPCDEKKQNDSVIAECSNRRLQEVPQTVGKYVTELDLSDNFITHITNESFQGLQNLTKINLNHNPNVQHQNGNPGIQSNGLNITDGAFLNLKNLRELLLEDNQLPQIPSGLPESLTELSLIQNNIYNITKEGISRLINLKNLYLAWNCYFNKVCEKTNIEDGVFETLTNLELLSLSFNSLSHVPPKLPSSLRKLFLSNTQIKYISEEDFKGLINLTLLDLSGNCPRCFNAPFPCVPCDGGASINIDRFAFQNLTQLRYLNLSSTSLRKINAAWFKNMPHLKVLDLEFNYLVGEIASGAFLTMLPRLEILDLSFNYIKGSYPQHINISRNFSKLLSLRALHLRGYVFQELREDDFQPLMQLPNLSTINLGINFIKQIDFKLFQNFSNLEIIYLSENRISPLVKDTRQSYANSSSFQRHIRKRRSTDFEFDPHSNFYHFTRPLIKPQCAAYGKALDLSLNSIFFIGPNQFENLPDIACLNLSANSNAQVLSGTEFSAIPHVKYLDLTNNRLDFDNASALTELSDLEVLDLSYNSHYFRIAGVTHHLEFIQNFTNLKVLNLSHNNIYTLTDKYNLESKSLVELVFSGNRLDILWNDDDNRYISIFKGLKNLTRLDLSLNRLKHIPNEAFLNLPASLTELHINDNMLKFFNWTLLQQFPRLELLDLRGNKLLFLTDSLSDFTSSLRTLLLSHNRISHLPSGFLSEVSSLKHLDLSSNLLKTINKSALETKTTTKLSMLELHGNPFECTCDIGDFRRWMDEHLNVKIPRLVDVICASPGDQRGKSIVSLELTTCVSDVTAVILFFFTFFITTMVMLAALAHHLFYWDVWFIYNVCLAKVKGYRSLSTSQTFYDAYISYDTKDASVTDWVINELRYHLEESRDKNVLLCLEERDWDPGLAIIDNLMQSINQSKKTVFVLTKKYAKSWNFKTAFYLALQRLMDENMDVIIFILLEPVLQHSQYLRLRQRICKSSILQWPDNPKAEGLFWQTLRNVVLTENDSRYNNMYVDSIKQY
Experimental: Effects on mouse TLR7 were also compared. Cells were stimulated overnight with TLR7/8 agonist CL097 at pre-determined ED70-80: 3 ug/ml for HEK-hTLR7, 1.5 ug/ml for HEK-mTLR7 and 12 ug/ml for HEK-hTLR8, before reading luminescence intensity. Three tests were performed and IC50 value was determined using Graphpad Prism 6 nonlinear regression curve fit.
HEK-293 cells (ATCC) were engineered to stably express a NF-kappaB transcription factor inducible E-selectin (ELAM-1) luciferase reporter derived from the plasmid pGL3 (Promega) containing base pairs −2241 bp to −254 bp from the promoter of the human E-selectin gene (Accession No. NM_000450). These cells were then subsequently engineered to stably and individually express human TLR4, TLR7 or TLR9 full-length ORF cDNAs. Human TLR4 cDNA (Accession No. NM_138554) was cloned into pcDNA 3.0 expression vector (Invitrogen). TLR4 transfected cells were also engineered to express human MD-2 co-receptor [MD-2 cDNA (Accession No. NM_015364) was cloned into the pEF-BOS vector] and were supplemented with 10 nM soluble CD14 (R&D Systems) in the media to optimize LPS responsiveness. Human TLR9 cDNA (Accession No. NM_017442) was cloned into the pBluescript II KS vector (Agilent). Human TLR7 cDNA (Accession No. NM_016562) was obtained from OriGene. HEK-293 cells stably expressing human TLR8 (Accession No. NM_138636) or mouse TLR7 (Accession No. NM_133211) were purchased from InvivoGen and were then stably transfected with pNiFty2(NF-kappaB)-luciferase reporter plasmid (InvivoGen). Each cell type was plated in Dulbecco's modified Eagle's medium (DMEM) containing 10% fetal bovine serum (FBS) at a density of 2.22×10^5 cells/ml into a 384-well plate and incubated for 2 days at 37° C., 5% CO2. Varying concentrations of antagonist compounds were then added. Cells were then incubated for another 30 minutes before adding the appropriate TLR agonist as follows (final concentrations indicated): lipopolysaccharide (LPS; Sigma) at 10 ng/ml for TLR4, CL097 (InvivoGen) at 3 ug/ml for human TLR7 and TLR8 and mouse TLR7, and CvG-2006-2A [sequence: […] (SEQ ID NO: 1) with phosphorothioate backbone, synthesized by Sigma-Aldrich] at 0.6 uM for TLR9.

| SMILES | pIC50 [1] | pIC50 ([2]; Mus musculus, Splenocyte) | pIC50 [4] | further results |
| --- | --- | --- | --- | --- |
| C[C@@H]1CN(c2ccc(C#N)c3ncccc23)C[C@H](CN2CCNC(C)(C)C2)O1 [ER-894655] | 8.30 | 7.08 |  |  |
| C[C@@H]1CN(c2ccc(C#N)c3ncccc23)C[C@H](CN2CCC(N)CC2)O1 [ER-888070] | 8.52 | 7.12 |  | % Suppression vs. Vehicle ([3]; 6 h, 33 mg/kg): 88%; % Suppression vs. Vehicle ([3]; 6 h, 100 mg/kg): 100%; % Suppression vs. Vehicle ([3]; 6 h, 300 mg/kg): 100%; % Suppression vs. Vehicle ([3]; 19 h, 33 mg/kg): 70%; % Suppression vs. Vehicle ([3]; 19 h, 100 mg/kg): 90%; % Suppression vs. Vehicle ([3]; 19 h, 300 mg/kg): 99% |
| C[C@@H]1CN(c2ccc(C#N)c3ncccc23)C[C@H](CN2CC[C@H](N3CCCC3)C2)O1 [ER-893881] | 8.05 | 6.57 |  | % Suppression vs. Vehicle ([3]; 3 h, 33 mg/kg): 95%; % Suppression vs. Vehicle ([3]; 6 h, 33 mg/kg): 82%; % Suppression vs. Vehicle ([3]; 6 h, 100 mg/kg): 99%; % Suppression vs. Vehicle ([3]; 13 h, 33 mg/kg): 0%; % Suppression vs. Vehicle ([3]; 13 h, 100 mg/kg): 19% |
| C[C@@H]1CN(c2ccc(C#N)c3ncccc23)C[C@H](CN2CCN(C)[C@@H](C)C2)O1 [ER-890831] | 9.00 |  |  | pIC50 [2]: 6.77 |
| CC1CN(c2ccc(C#N)c3ncccc23)CC(CN2CCC(N3CCCCC3)C2)O1.Cl.Cl (stereo not drawn) [ER-890311] |  |  |  | % Suppression vs. Vehicle ([3]; 3 h, 33 mg/kg): 88%; % Suppression vs. Vehicle ([3]; 19 h, 3.67 mg/kg): 0%; % Suppression vs. Vehicle ([3]; 19 h, 11 mg/kg): 0%; % Suppression vs. Vehicle ([3]; 19 h, 33 mg/kg): 0%; pIC50 [2]: 6.37 |
| CC1CN(c2ccc(C#N)c3ncccc23)CC(CN2CCN(C)C(C)(C)C2)O1 (stereo not drawn) [ER-894656] | 8.15 | 7.64 |  |  |
| CC(=O)NC1CN(C[C@H]2CN(c3ccc(C#N)c4ncccc34)C[C@@H](C)O2)C1 [ER-894152] | 6.76 | 6.18 |  |  |
| CC1CN(c2ccc(C#N)c3ncccc23)CC(COc2ncccn2)O1 (stereo not drawn) [ER-895325] | 7.59 | 6.92 |  |  |
| CCOc1cccnc1NC[C@H]1CN(c2ccc(C#N)c3ncccc23)C[C@@H](C)O1 [ER-887587] | 9.00 |  | 8.74 |  |
| CC1CN(c2ccc(C#N)c3ncccc23)CC(C(O)CCc2ccccc2)O1 (single isomer, unassigned) [ER-886568] | 7.10 |  | 8.30 |  |
| C[C@@H]1CN(c2ccc(C#N)c3ncccc23)C[C@H](CNc2cccnc2)O1 [ER-887138] | 8.40 |  | 7.89 |  |
| C[C@@H]1CN(c2ccc(C#N)c3ncccc23)C[C@H](CN2CCCN(C)CC2)O1 [ER-889601] |  |  |  | % Suppression vs. Vehicle ([3]; 3 h, 100 mg/kg): 96%; % Suppression vs. Vehicle ([3]; 6 h, 33 mg/kg): 95%; % Suppression vs. Vehicle ([3]; 6 h, 100 mg/kg): 90%; % Suppression vs. Vehicle ([3]; 19 h, 100 mg/kg): 96%; pIC50 [2]: 6.75 |
| CC1CN(c2ccc(C#N)c3ncccc23)CC(CN2CCC(NS(C)(=O)=O)CC2)O1 (stereo not drawn) [ER-893948] | 6.82 | 6.38 |  |  |
| C[C@@H]1CN(c2ccc(C#N)c3ncccc23)C[C@H](CCl)O1 [ER-885906] | 7.48 |  | 7.70 |  |
| C[C@@H]1CN(c2ccc(C#N)c3ncccc23)C[C@H](CN2CCC[C@@H](O)C2)O1 [ER-886949] | 7.49 |  | 7.11 |  |
| C[C@@H]1CN(c2ccc(C#N)c3ncccc23)C[C@H](CN2CCC(F)(F)CC2)O1 [ER-887142] | 6.83 |  | 6.94 |  |
| COc1ccnc(NC[C@H]2CN(c3ccc(C#N)c4ncccc34)C[C@@H](C)O2)c1 [ER-886858] | 7.82 |  | 8.70 |  |
